# Active and inactive are the calls of the source. The rule behind the calls is not given here.
# Tested on: GENE-TOX genotoxicity assays, various organisms and cells
# Assay: GENE-TOX mutagenicity studies
# Details: for call: Assay Type: In vivo carcinogenicity studies
# From the text: GENE-TOX provides genetic toxicology (mutagenicity) test data from expert peer review of open scientific literature for more than 3,000 chemicals from the United States Environmental Protection Agency (EPA). GENE-TOX was established to select assay systems for evaluation, review data in the scientific literature, and recommend proper testing protocols and evaluation procedures for these systems.
# GENE-TOX covers the years 1991 - 1998. It is no longer updated.
# This is an archive assay for GENE-TOX mutagenicity studies.
# [1] = Species/Cell Type: Bacillus subtilis (H17 vs M45T), Assay Type: Rec-assay, spot test, DNA effects (bacterial DNA repair), Assay Code: REX-, Evaluation Type: Evaluation A (Pre-1980)
# [2] = Species/Cell Type: Escherichia coli WP2, Assay Type: Tryptophan reverse gene mutation, Assay Code: WP2-, Evaluation Type: Evaluation A (Pre-1980)
# [3] = Species/Cell Type: Salmonella typhimurium (one or more of the five standard strains: TA98, TA100, TA1535, TA1537, and TA1538), Assay Type: Histidine reverse gene mutation, Ames assay, Assay Code: SAL+, Evaluation Type: Evaluation A (Pre-1980)
# [4] = Species/Cell Type: Bacillus subtilis (H17 vs M45), Assay Type: Rec-assay, spot test, DNA effects (bacterial DNA repair), Assay Code: REW-, Evaluation Type: Evaluation A (Pre-1980)
# [5] = Species/Cell Type: Salmonella typhimurium (one or more of the five standard strains: TA98, TA100, TA1535, TA1537, and TA1538), Assay Type: Histidine reverse gene mutation, Ames assay, Assay Code: SAL+*, Activation: With metabolic activation, Evaluation Type: Evaluation A (Pre-1980)
# [6] = Species/Cell Type: Allium cepa, Assay Type: Chromosome aberrations, Assay Code: ALC+, Evaluation Type: Evaluation A (Pre-1980)
# [7] = Species/Cell Type: Human, Assay Type: Sister-chromatid exchange (SCE) in vitro, Assay Code: SC1+D, Dose Response: With dose response, Evaluation Type: Evaluation B (Post-1980)
# [8] = Species/Cell Type: Mammalian polychromatic erythrocytes, Assay Type: Micronucleus test, chromosome aberrations, Assay Code: MNT+U, Dose Response: Unconfirmed positive response, Evaluation Type: Evaluation B (Post-1980)
# [9] = Species/Cell Type: Nonhuman, Assay Code: CCG-, Evaluation Type: Evaluation A (Pre-1980)
# [10] = Species/Cell Type: Nonhuman, Assay Type: Sister-chromatid exchange (SCE) in vitro, Assay Code: SC2+, Evaluation Type: Evaluation B (Post-1980)
# [11] = Species/Cell Type: Saccharomyces cerevisiae, Assay Type: Mitotic recombination or gene conversion, Assay Code: YEC+, Evaluation Type: Evaluation A (Pre-1980)
# [12] = Species/Cell Type: Nonhuman, Assay Type: Sister-chromatid exchange (SCE) in vitro, Assay Code: SC2+D, Dose Response: With dose response, Evaluation Type: Evaluation B (Post-1980)
# [13] = Species/Cell Type: Syrian hamster embryo (SA7/SHE) cells, Assay Type: Cell transformation, viral enhanced, Assay Code: CT7-, Evaluation Type: Evaluation A (Pre-1980)
# [14] = Species/Cell Type: Syrian hamster embryo (SHE) cells, Assay Type: Cell transformation, clonal assay, Assay Code: CTCT, Evaluation Type: Evaluation A (Pre-1980)
# [15] = Species/Cell Type: Drosophila melanogaster, Assay Type: Sex-linked recessive lethal gene mutation, Assay Code: SRL+, Evaluation Type: Evaluation A (Pre-1980)
# [16] = Species/Cell Type: Human lymphocytes, Assay Type: Sister-chromatid exchange (SCE) in vitro, Assay Code: SCL+D, Dose Response: With dose response, Evaluation Type: Evaluation B (Post-1980)
# [17] = Species/Cell Type: Nonhuman, Assay Code: CCG+, Evaluation Type: Evaluation A (Pre-1980)
compound,measurement,setting,value
O=C(O)c1ccc([N+](=O)[O-])o1,mutagenic call,[1],inactive; negative
same,mutagenic call,[2],inactive; negative
same,mutagenic call,"Species/Cell Type: Escherichia coli WP2 UVRA, Assay Type: Tryptophan reverse gene mutation, Assay Code: WPU-, Evaluation Type: Evaluation A (Pre-1980)",inactive; negative
same,mutagenic call,[3],active; positive
COc1cc(=O)oc(/C=C/C=C/C=C/C(C)=C/[C@]2(C)O[C@H](C)[C@](C)(O)[C@H]2O)c1C,mutagenic call,[4],inactive; negative
Nc1ccc2c(ccc3ccccc32)n1,mutagenic call,[5],active; positive
C/C=C1/C[C@@H](C)[C@@](C)(O)C(=O)OC[C@H]2CCN3CC[C@@H](OC1=O)[C@@H]23,mutagenic call,"Species/Cell Type: Drosophila melanogaster, Assay Type: Sex-linked recessive lethal gene mutation, Assay Code: SRLT, Evaluation Type: Evaluation A (Pre-1980)",no conclusion
CNC(=O)CSP(=S)(OC)OC,mutagenic call,[6],active; positive
same,mutagenic call,"Species/Cell Type: Bacillus subtilis (H17 vs M45), Assay Type: Rec-assay, spot test, DNA effects (bacterial DNA repair), Assay Code: REWT, Evaluation Type: Evaluation A (Pre-1980)",no conclusion
same,mutagenic call,"Species/Cell Type: Drosophila melanogaster, Assay Type: Sex-linked recessive lethal gene mutation, Assay Code: SRL-, Evaluation Type: Evaluation A (Pre-1980)",inactive; negative
same,mutagenic call,[7],active; positive
same,mutagenic call,[8],active; positive
same,call,[9],inactive; negative
same,mutagenic call,[10],active; positive
same,mutagenic call,[11],active; positive
same,mutagenic call,"Species/Cell Type: Vicia faba, Assay Type: Chromosome aberrations, Assay Code: VIC+D, Dose Response: With dose response, Evaluation Type: Evaluation A (Pre-1980)",active; positive
BrBr,mutagenic call,[6],active; positive
CO[C@@H]1[C@@H](OC(N)=O)[C@@H](O)[C@H](Oc2ccc3c(O)c(NC(=O)c4ccc(O)c(CC=C(C)C)c4)c(=O)oc3c2C)OC1(C)C,mutagenic call,[10],active; positive
O=NN1CCCNC1=O,mutagenic call,[3],active; positive
Cc1cc2cc3ccccc3cc2c2ccccc12,mutagenic call,[12],active; positive
same,mutagenic call,[5],active; positive
COC(=O)c1ccc(C(=O)OC)cc1,call,[9],inactive; negative
same,mutagenic call,[13],inactive; negative
O=[N+]([O-])O,mutagenic call,"Species/Cell Type: Bacillus subtilis (H17 vs M45), Assay Type: Rec-assay, spot test, DNA effects (bacterial DNA repair), Assay Code: REW+, Evaluation Type: Evaluation A (Pre-1980)",active; positive
same,mutagenic call,[8],active; positive
same,mutagenic call,[13],inactive; negative
same,mutagenic call,[14],no conclusion
Oc1cc2cc3c(ccc4ccccc43)cc2c2ccccc12,mutagenic call,"Species/Cell Type: Chinese hamster lung (V79) cells, Assay Type: Forward gene mutation at the HPRT or ouabain locus, Assay Code: V79+, Evaluation Type: Evaluation A (Pre-1980)",active; positive
same,mutagenic call,"Species/Cell Type: Mouse prostate cells, Assay Type: Cell transformation, Assay Code: CTM-, Evaluation Type: Evaluation A (Pre-1980)",inactive; negative
same,mutagenic call,[14],no conclusion
C#CC(O)(c1ccccc1)c1ccccc1,mutagenic call,"Species/Cell Type: Salmonella typhimurium (one or more of the five standard strains: TA98, TA100, TA1535, TA1537, and TA1538), Assay Type: Histidine reverse gene mutation, Ames assay, Assay Code: SALT, Evaluation Type: Evaluation A (Pre-1980)",no conclusion
ClCc1c2ccccc2cc2c1ccc1ccccc12,mutagenic call,[3],active; positive
ClCC1CO1 (configuration not stated),mutagenic call,[15],active; positive
same,mutagenic call,"Species/Cell Type: Escherichia coli polA (W3119 vs P3478), Assay Type: Rec-assay, DNA effects (bacterial DNA repair), Assay Code: RE1+, Evaluation Type: Evaluation A (Pre-1980)",active; positive
same,mutagenic call,"Species/Cell Type: Human lymphocytes or leukocytes, Assay Type: Chromosome aberrations in vitro, Assay Code: CY7+, Evaluation Type: Evaluation A (Pre-1980)",active; positive
same,mutagenic call,"Species/Cell Type: Human lymphocytes or leukocytes, Assay Type: Chromosome aberrations in vivo, Assay Code: CY8+, Evaluation Type: Evaluation A (Pre-1980)",active; positive
same,mutagenic call,[16],active; positive
same,mutagenic call,[7],active; positive
same,mutagenic call,"Species/Cell Type: Human, Sex: Male, Assay Type: Sperm morphology, Assay Code: SPH-, Evaluation Type: Evaluation A (Pre-1980)",inactive; negative
same,mutagenic call,"Species/Cell Type: Mammalian polychromatic erythrocytes, Assay Type: Micronucleus test, chromosome aberrations, Assay Code: MNTT, Evaluation Type: Evaluation A (Pre-1980)",no conclusion
same,mutagenic call,"Species/Cell Type: Mouse, Sex: Male, Assay Type: Sperm morphology, Assay Code: SPI-, Evaluation Type: Evaluation A (Pre-1980)",inactive; negative
same,mutagenic call,"Species/Cell Type: Neurospora crassa, Assay Type: Forward gene mutation, Assay Code: NEF+, Evaluation Type: Evaluation A (Pre-1980)",active; positive
same,mutagenic call,"Species/Cell Type: Neurospora crassa, Assay Type: Reverse gene mutation, Assay Code: NER+, Evaluation Type: Evaluation A (Pre-1980)",active; positive
same,call,[17],active; positive
same,mutagenic call,[12],active; positive
same,mutagenic call,[3],active; positive
same,mutagenic call,"Species/Cell Type: Schizosaccharomyces pombe, Assay Type: Forward gene mutation, Assay Code: YEY+, Evaluation Type: Evaluation A (Pre-1980)",active; positive
same,mutagenic call,"Species/Cell Type: Schizosaccharomyces pombe, Assay Type: Reverse gene mutation, Assay Code: YEZ+, Evaluation Type: Evaluation A (Pre-1980)",active; positive
CN[C@H]1Cc2c[nH]c3c(Cl)ccc(c23)[C@]12C=C(C)C(=O)O2,mutagenic call,[4],inactive; negative
CN(C)N=Nc1c(Br)cc(Br)cc1Br,mutagenic call,[15],active; positive
same,mutagenic call,[11],active; positive
CC(=O)[O-].CC(=O)[O-].CC(=O)[O-].CC(=O)[O-].[Pb+2],call,[17],active; positive
CNC(=O)Oc1cccc(C)c1,mutagenic call,[1],inactive; negative
same,mutagenic call,[2],inactive; negative
O=C(Nc1ccc([N+](=O)[O-])cc1Cl)c1cc(Cl)ccc1O,mutagenic call,[16],active; positive
same,mutagenic call,"Species/Cell Type: Human lymphocytes, Assay Type: Sister-chromatid exchange (SCE) in vivo, Assay Code: SCY+, Evaluation Type: Evaluation B (Post-1980)",active; positive
same,mutagenic call,[7],active; positive
